# Source: patent US20250163104A1, “MACROCYCLIC IMMUNOMODULATORS” (priority 2021, published 2025)
# Where a SMILES comes first, the peptide text is derived from it. Bridges are numbered along the chain shown (N, C = ends). [ ]: non-standard residue; d: D form. The star is where a group is joined. ξ: configuration not given here. Bip(4'-NHAc) = CC(=O)Nc1ccc(-c2ccc(C[C@H](N)C(=O)O)cc2)cc1; Phe(3-CF3) = N[C@@H](Cc1cccc(C(F)(F)F)c1)C(=O)O; Ala(morpholin-4-yl) = N[C@@H](CN1CCOCC1)C(=O)O; Phe(4-COOH) = N[C@@H](Cc1ccc(C(=O)O)cc1)C(=O)O; Bip = N[C@@H](Cc1ccc(-c2ccccc2)cc1)C(=O)O; Phe(3-Me) = Cc1cccc(C[C@H](N)C(=O)O)c1; 3Pal = N[C@@H](Cc1cccnc1)C(=O)O; Cha = N[C@@H](CC1CCCCC1)C(=O)O; Ile(3ξ) = CCC(C)[C@H](N)C(=O)O; Carboxymethyl = O=C(O)C*; Orn = NCCC[C@H](N)C(=O)O; Dab = NCC[C@H](N)C(=O)O; Dap = NC[C@H](N)C(=O)O; Piv = CC(C)(C)C(=O)*
# Target: T1, human PD-1 / PD-L1-Ig binding on Jurkat cell line over-expressing human PD-1 (Jurkat-PD-1) (Homo sapiens, UniProt Q15116)
# T1 construct: expressed in transfected cells; host or cells: Jurkat
# T1 sequence (Q15116 25-288): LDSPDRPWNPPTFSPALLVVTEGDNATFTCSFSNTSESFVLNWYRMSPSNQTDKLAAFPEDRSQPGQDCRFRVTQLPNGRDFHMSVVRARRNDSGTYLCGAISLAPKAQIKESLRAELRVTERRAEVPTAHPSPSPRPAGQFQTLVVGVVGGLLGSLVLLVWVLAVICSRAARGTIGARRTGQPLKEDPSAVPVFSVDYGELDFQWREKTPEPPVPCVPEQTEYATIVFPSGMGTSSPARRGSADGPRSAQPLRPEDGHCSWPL
# Test: Jurkat-PD-1 Cell Binding High-Content Screening Assay (CBA)
# Type: cell-based
# Conditions: Jurkat-PD-1 cells, PE-labeled PD-L1-Ig 20 nM final; read-out: Jurkat HPD1_PDL1 IC50
# Method in brief: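 Jurkat cells over-expressing human PD-1, in DMEM/10% FCS, pre-incubated with compound 2 h at 37° C. PE-labeled human PD-L1-Ig (20 nM final) added for 1 h; cells fixed in paraformaldehyde with Hoechst 33342 nuclear stain, washed, and bound fluorescence quantified by high-content imaging.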
row,Compound,IC50
1,CC(=O)Nc1ccc(-c2ccc(C[C@@H]3NC(=O)[C@H](Cc4cccc(C(F)(F)F)c4)NC(=O)[C@H](CC(=O)O)NC(=O)[C@H](Cc4ccc(C(=O)O)cc4)NC(=O)[C@H](CN4CCOCC4)NC(=O)CSC[C@@H](C(=O)N[C@@H](CCN)C(N)=O)NC(=O)[C@H](CCC(=O)O)NC(=O)[C@H](C(C)C)NC(=O)[C@H](CC4CCCCC4)NC(=O)[C@H](CCN)NC(=O)[C@@H](CC(C)C)NC(=O)[C@H](CCCN)NC(=O)[C@H](Cc4ccc(C(=O)O)cc4)NC(=O)[C@H](Cc4ccc(-c5ccccc5)cc4)NC3=O)cc2)cc1 [Example 2736] ({CH2CO}-[Ala(morpholin-4-yl)][Phe(4-COOH)]D[Phe(3-CF3)][Bip(4'-NHAc)][Bip][Phe(4-COOH)][Orn][dL][Dab][Cha]VEC[Dab]-NH2; thioether N-14),1.1 nM
2,Cc1cccc(C[C@@H]2NC(=O)[C@H](CC(=O)O)NC(=O)[C@H](Cc3ccc(OCC(=O)O)cc3)NC(=O)[C@H](CN)NC(=O)CSC[C@@H](C(=O)N[C@@H](CCN)C(N)=O)NC(=O)[C@H](CCNC(=O)C(C)(C)C)NC(=O)[C@H](C(C)C)NC(=O)[C@H](CC3CCCCC3)NC(=O)[C@H](CCN)NC(=O)[C@@H](CC(C)C)NC(=O)[C@H](CCCN)NC(=O)[C@H](Cc3ccc(O)cc3)NC(=O)[C@H](Cc3ccc(-c4ccccc4)cc3)NC(=O)[C@H](Cc3ccc(O)cc3)NC2=O)c1 [Compound 2044] ({CH2CO}-[Dap]Y(Carboxymethyl)D[Phe(3-Me)]Y[Bip]Y[Orn][dL][Dab][Cha]V[Dab](Piv)C[Dab]-NH2; thioether N-14),9.7 nM
3,CC(C)C[C@@H]1NC(=O)[C@H](CCN)NC(=O)[C@@H](CC(C)C)NC(=O)[C@H](CCCN)NC(=O)[C@H](C(C)C)NC(=O)[C@H](Cc2ccc(-c3ccccc3)cc2)NC(=O)[C@H](C(C)C)NC(=O)[C@H](Cc2c[nH]c3ccccc23)NC(=O)[C@H](CC(=O)O)NC(=O)[C@H](Cc2ccc(O)cc2)NC(=O)[C@H](Cc2cccnc2)NC(=O)CSC[C@@H](C(=O)N[C@@H](C)C(N)=O)NC(=O)[C@H]([C@@H](C)O)NC(=O)[C@H](C(C)C)NC1=O [Compound 1050] ({CH2CO}-[3Pal]YDWV[Bip]V[Orn][dL][Dab]LVTCA-NH2; thioether N-14),9.9 nM

# Further molecules by falling IC50, results first:
row,IC50,Compound
1,70.8 nM,CCC(C)[C@@H]1NC(=O)[C@H](Cc2ccc(-c3ccccc3)cc2)NC(=O)[C@H](C(C)C)NC(=O)[C@H](Cc2cccc(C)c2)NC(=O)[C@H](CC(=O)O)NC(=O)[C@H](Cc2cccnc2)NC(=O)[C@H](Cc2ccccc2)NC(=O)CSC[C@@H](C(=O)N[C@@H](C)C(N)=O)NC(=O)[C@H]([C@@H](C)O)NC(=O)[C@H](C(C)C)NC(=O)[C@H](CC2CCCCC2)NC(=O)[C@H](CCN)NC(=O)[C@@H](CC(C)C)NC(=O)[C@H](CCCN)NC1=O (stereo partly drawn) [Compound 2234] ({CH2CO}-F[3Pal]D[Phe(3-Me)]V[Bip][Ile(3ξ)][Orn][dL][Dab][Cha]VTCA-NH2; thioether N-14)
2,13.6 nM,CC(C)C[C@H]1NC(=O)[C@H](CCCN)NC(=O)[C@H](CCC(=O)O)NC(=O)[C@H](Cc2ccc(-c3ccccc3)cc2)NC(=O)[C@H](C(C)C)NC(=O)[C@H](Cc2cccc(C(F)(F)F)c2)NC(=O)[C@H](CC(=O)O)NC(=O)[C@H](Cc2ccc(C(=O)O)cc2)NC(=O)[C@H](Cc2ccc(OCC(=O)O)cc2)NC(=O)CSC[C@@H](C(=O)N[C@@H](C)C(N)=O)NC(=O)[C@H]([C@@H](C)O)NC(=O)[C@H](C(C)C)NC(=O)[C@H](CC2CCCCC2)NC(=O)[C@H](CCN)NC1=O [Compound 1461]
3,12 nM,CC[C@H](C)[C@@H]1NC(=O)[C@H](Cc2ccc(-c3ccccc3)cc2)NC(=O)[C@H](C(C)C)NC(=O)[C@H](Cc2cccc(OC)c2)NC(=O)[C@H](CC(=O)O)NC(=O)[C@H](Cc2ccc(C(=O)O)cc2)NC(=O)[C@H](Cc2ccncc2)NC(=O)CSC[C@@H](C(=O)N[C@@H](C)C(N)=O)NC(=O)[C@H]([C@@H](C)O)NC(=O)[C@H](C(C)C)NC(=O)[C@H](CC(C)C)NC(=O)[C@H](CCN)NC(=O)[C@@H](CC(C)C)NC(=O)[C@H](CCCN)NC1=O [Compound 1181]
